Assay results reported in patent US11254686B1 (Corvus Pharmaceuticals, Inc., priority 2017, dated 2022).
pIC50: −log10 of the molar value.

Experiments:
Format in all cases: biochemical
adenosine A2B receptor = adenosine A2B receptor (Homo sapiens (Human), UniProt P29275); assay: Adenosine receptor activity assay (Table 1), A2B activity; details: for Ratio: A2A activity to the A2B activity, A2A/A2B; for pIC50: read-out: Ave A2B cAMP IC50
adenosine A2A receptor = adenosine A2A receptor (Homo sapiens (Human), UniProt P29274); assay: Adenosine receptor activity assay (Table 1), A2A activity; details: read-out: Ave A2A cAMP IC50
adenosine A2A receptor, sequence (P29274 whole entry): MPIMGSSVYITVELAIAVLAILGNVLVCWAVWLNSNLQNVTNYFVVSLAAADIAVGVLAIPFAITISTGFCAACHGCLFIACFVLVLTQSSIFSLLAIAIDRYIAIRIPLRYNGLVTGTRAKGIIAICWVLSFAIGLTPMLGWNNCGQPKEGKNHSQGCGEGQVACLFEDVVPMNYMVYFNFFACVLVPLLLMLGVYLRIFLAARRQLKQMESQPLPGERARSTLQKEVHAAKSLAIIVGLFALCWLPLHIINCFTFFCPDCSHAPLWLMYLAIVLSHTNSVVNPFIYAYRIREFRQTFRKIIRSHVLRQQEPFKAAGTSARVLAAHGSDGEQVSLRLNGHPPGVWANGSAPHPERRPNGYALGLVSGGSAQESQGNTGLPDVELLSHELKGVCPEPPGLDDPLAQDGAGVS

adenosine A1 receptor = adenosine A1 receptor (Homo sapiens (Human), UniProt P30542); assay: Adenosine receptor activity assay (Table 1), A1 cAMP
adenosine A1 receptor, sequence (P30542 whole entry): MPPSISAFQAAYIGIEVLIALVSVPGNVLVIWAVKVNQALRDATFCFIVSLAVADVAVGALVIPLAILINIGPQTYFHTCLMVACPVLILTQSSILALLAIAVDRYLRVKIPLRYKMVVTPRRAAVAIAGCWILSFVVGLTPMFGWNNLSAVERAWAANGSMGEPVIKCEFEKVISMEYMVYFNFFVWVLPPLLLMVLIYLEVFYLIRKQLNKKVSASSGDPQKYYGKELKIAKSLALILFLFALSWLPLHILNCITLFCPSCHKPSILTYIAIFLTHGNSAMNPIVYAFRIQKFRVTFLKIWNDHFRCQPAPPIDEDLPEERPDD
Experimental: (§1) Table 1. Compounds (e.g., Adenosine Receptor modulators) and activity assay results. The legend is as follows: A=<10 nM; B=10-50 nM; C=50-100 nM; D=100-500; and E=>500 nM. The ratio corresponds to the A2A activity to the A2B activity; or A2A/A2B.

adenosine A3 receptor = adenosine A3 receptor (Homo sapiens (Human), UniProt P0DMS8); assay: Adenosine receptor activity assay (Table 1), A3 cAMP
adenosine A3 receptor, sequence (P0DMS8 whole entry): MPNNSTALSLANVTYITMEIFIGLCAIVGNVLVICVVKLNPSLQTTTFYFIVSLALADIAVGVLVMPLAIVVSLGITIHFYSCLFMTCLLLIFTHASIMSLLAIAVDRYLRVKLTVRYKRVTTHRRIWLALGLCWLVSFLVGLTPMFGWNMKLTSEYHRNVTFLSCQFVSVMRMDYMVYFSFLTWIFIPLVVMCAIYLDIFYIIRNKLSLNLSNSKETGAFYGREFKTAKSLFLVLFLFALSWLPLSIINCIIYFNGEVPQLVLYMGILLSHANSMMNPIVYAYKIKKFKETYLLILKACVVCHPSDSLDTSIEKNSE
Experimental: as §1

adenosine A2B receptor, sequence (P29275 whole entry): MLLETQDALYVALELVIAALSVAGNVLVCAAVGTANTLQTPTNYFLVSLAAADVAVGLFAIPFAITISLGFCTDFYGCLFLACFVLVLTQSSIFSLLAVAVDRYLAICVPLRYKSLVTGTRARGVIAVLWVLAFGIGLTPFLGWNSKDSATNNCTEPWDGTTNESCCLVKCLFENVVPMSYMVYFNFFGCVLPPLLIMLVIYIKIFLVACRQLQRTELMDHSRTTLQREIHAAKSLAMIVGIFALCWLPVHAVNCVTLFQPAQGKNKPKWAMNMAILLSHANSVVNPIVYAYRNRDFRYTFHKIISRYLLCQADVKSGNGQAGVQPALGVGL

Ratio (adenosine A2B receptor) | pIC50 (adenosine A2B receptor) | pIC50 (adenosine A2A receptor) | pIC50 (adenosine A1 receptor) | pIC50 (adenosine A3 receptor) | Compound
23.37 | > 8.00 | 7.00 to 7.30 | < 6.30 | 7.00 to 7.30 | CCNC(=O)CC1CN(C(=O)c2nc(N[C@@H](C)c3cncc(F)c3)nc3cc(C)sc23)C1 [Example Z495, (S)—N-Ethyl-2-(1-(2-((1-(5-fluoropyridin-3-yl)ethyl)amino)-6-methylthieno[3,2-d]pyrimidine-4-carbonyl)azetidin-3-yl)acetamide]
287.41 | > 8.00 | < 6.30 | < 6.30 | < 6.30 | Cc1cc2nc(N[C@@H](C)c3cncc(F)c3)nc(C(=O)N3CC(C(N)=O)C3)c2s1 [Example Z504, (S)-1-(2-((1-(5-Fluoropyridin-3-yl)ethyl)amino)-6-methylthieno[3,2-d]pyrimidine-4-carbonyl)azetidine-3-carboxamide]
5.66 | 7.30 to 8.00 | 7.00 to 7.30 | < 6.30 | < 6.30 | CCOC(=O)N(C)C1CN(C(=O)c2nc(N[C@@H](C)c3cncc(F)c3)nc3cc(C)sc23)C1 [Example Z507, Ethyl (S)-(1-(2-((1-(5-fluoropyridin-3-yl)ethyl)amino)-6-methylthieno[3,2-d]pyrimidine-4-carbonyl)azetidin-3-yl)(methyl)carbamate]
1.06 | 7.30 to 8.00 | 7.30 to 8.00 | < 6.30 | < 6.30 | Cc1cc2nc(N[C@@H](C)c3cncc(F)c3)nc(C(=O)N3CC(N(C)C(=O)CC(C)(C)C)C3)c2s1 [Example Z508, (S)—N-(1-(2-((1-(5-Fluoropyridin-3-yl)ethyl)amino)-6-methylthieno[3,2-d]pyrimidine-4-carbonyl)azetidin-3-yl)-N,3,3-trimethylbutanamide]
80.91 | > 8.00 | < 6.30 | < 6.30 | < 6.30 | CC(=O)N(C)C1CN(C(=O)c2nc(N[C@@H](C)c3cncc(F)c3)nc3cc(C)sc23)C1 [Example Z509, (S)—N-(1-(2-((1-(5-Fluoropyridin-3-yl)ethyl)amino)-6-methylthieno[3,2-d]pyrimidine-4-carbonyl)azetidin-3-yl)-N-methylacetamide]
2.90 | 7.30 to 8.00 | 7.30 to 8.00 | < 6.30 | 7.00 to 7.30 | Cc1cc2nc(N[C@@H](C)c3cncc(F)c3)nc(C(=O)N3CC(NC(=O)OC(C)C)C3)c2s1 [Example Z511, Isopropyl (S)-(1-(2-((1-(5-fluoropyridin-3-yl)ethyl)amino)-6-methylthieno[3,2-d]pyrimidine-4-carbonyl)azetidin-3-yl)carbamate]
0.18 | 7.30 to 8.00 | > 8.00 | 6.30 to 7.00 | 7.30 to 8.00 | Cc1cc2nc(N[C@@H](C)c3cncc(F)c3)nc(C(=O)N3CC(NC(=O)C(C)(C)C)C3)c2s1 [Example Z513, (S)—N-(1-(2-((1-(5-Fluoropyridin-3-yl)ethyl)amino)-6-methylthieno[3,2-d]pyrimidine-4-carbonyl)azetidin-3-yl)pivalamide]
53.11 | 7.30 to 8.00 | < 6.30 | < 6.30 | < 6.30 | Cc1cc2nc(N[C@@H](C)c3cccnc3)nc(C(=O)N3CC(CO)C3)c2s1 [Example Z515, (S)-(3-(Hydroxymethyl)azetidin-1-yl)(6-methyl-2-((1-(pyridin-3-yl)ethyl)amino)thieno[3,2-d]pyrimidin-4-yl)methanone]
5.46 | > 8.00 | 7.30 to 8.00 | < 6.30 | < 6.30 | COCCC(=O)NC1CN(C(=O)c2nc(N[C@@H](C)c3cncc(F)c3)nc3cc(C)sc23)C1 [Example Z518, (S)—N-(1-(2-((1-(5-Fluoropyridin-3-yl)ethyl)amino)-6-methylthieno[3,2-d]pyrimidine-4-carbonyl)azetidin-3-yl)-3-methoxypropanamide]
1.58 | > 8.00 | 7.30 to 8.00 | < 6.30 | 6.30 to 7.00 | Cc1cc2nc(N[C@@H](C)c3cncc(F)c3)nc(C(=O)N3CC(NC(=O)C4CC4)C3)c2s1 [Example Z522, (S)—N-(1-(2-((1-(5-Fluoropyridin-3-yl)ethyl)amino)-6-methylthieno[3,2-d]pyrimidine-4-carbonyl)azetidin-3-yl)cyclopropanecarboxamide]
1.40 | > 8.00 | 7.30 to 8.00 | < 6.30 | 6.30 to 7.00 | Cc1cc2nc(N[C@@H](C)c3cncc(F)c3)nc(C(=O)N3CC(NC(=O)C4CCOC4)C3)c2s1 (stereo partly drawn) [Example Z523, N-(1-(2-(((S)-1-(5-Fluoropyridin-3-yl)ethyl)amino)-6-methylthieno[3,2-d]pyrimidine-4-carbonyl)azetidin-3-yl)tetrahydrofuran-3-carboxamide]
44.92 | > 8.00 | 6.30 to 7.00 | < 6.30 | < 6.30 | CC(=O)NCC1CN(C(=O)c2nc(N[C@@H](C)c3cncc(F)c3)nc3ccsc23)C1 [Example Z528, (S)—N-((1-(2-((1-(5-Fluoropyridin-3-yl)ethyl)amino)thieno[3,2-d]pyrimidine-4-carbonyl)azetidin-3-yl)methyl)acetamide]
4.15 | 7.30 to 8.00 | 6.30 to 7.00 | < 6.30 | < 6.30 | C[C@H](Nc1nc(C(=O)N2CC(CNC(=O)C(C)(C)C)C2)c2sccc2n1)c1cncc(F)c1 [Example Z529, (S)—N-((1-(2-((1-(5-Fluoropyridin-3-yl)ethyl)amino)thieno[3,2-d]pyrimidine-4-carbonyl)azetidin-3-yl)methyl)pivalamide]

The next lines start with the compound.

Compound | Ratio (adenosine A2B receptor) | pIC50 (adenosine A2B receptor) | pIC50 (adenosine A2A receptor) | pIC50 (adenosine A1 receptor) | pIC50 (adenosine A3 receptor)
Cc1cc2nc(N[C@@H](C)c3cncc(F)c3)nc(C(=O)NCCC3CCNCC3)c2s1 [Example Z496, (S)-2-((1-(5-Fluoropyridin-3-yl)ethyl)amino)-6-methyl-N-(2-(piperidin-4-yl)ethyl)thieno[3,2-d]pyrimidine-4-carboxamide] | 524.78 | 7.30 to 8.00 | < 6.30 | < 6.30 | < 6.30
CCNC(=O)c1ccc(CCNC(=O)c2nc(N[C@@H](C)c3cncc(F)c3)nc3cc(C)sc23)cc1 [Example Z506, (S)—N-(4-(Ethylcarbamoyl)phenethyl)-2-((1-(5-fluoropyridin-3-yl)ethyl)amino)-6-methylthieno[3,2-d]pyrimidine-4-carboxamide] | 22.42 | 7.30 to 8.00 | < 6.30 | < 6.30 | < 6.30
CC(C)OC(=O)NC1CN(C(=O)c2nc(N[C@@H](C)c3cncc(F)c3)nc3ccsc23)C1 [Example Z510, Isopropyl (S)-(1-(2-((1-(5-fluoropyridin-3-yl)ethyl)amino)thieno[3,2-d]pyrimidine-4-carbonyl)azetidin-3-yl)carbamate] | 2.03 | 7.30 to 8.00 | 7.30 to 8.00 | < 6.30 | < 6.30
Cc1cc2nc(N[C@@H](C)c3cncc(F)c3)nc(C(=O)N3CC(NC(=O)CNC(=O)c4ccccc4)C3)c2s1 [Example Z512, (S)—N-(2-((1-(2-((1-(5-Fluoropyridin-3-yl)ethyl)amino)-6-methylthieno[3,2-d]pyrimidine-4-carbonyl)azetidin-3-yl)amino)-2-oxoethyl)benzamide] | 33.02 | 7.30 to 8.00 | < 6.30 | < 6.30 | < 6.30
C[C@H](Nc1nc(C(=O)N2CC(NC(=O)C3CCOC3)C2)c2sccc2n1)c1cncc(F)c1 (stereo partly drawn) [Example Z519, N-(1-(2-(((S)-1-(5-Fluoropyridin-3-yl)ethyl)amino)thieno[3,2-d]pyrimidine-4-carbonyl)azetidin-3-yl)tetrahydrofuran-3-carboxamide] | 3.87 | > 8.00 | 7.30 to 8.00 | < 6.30 | < 6.30
CCNC(=O)C1CCN(C(=O)c2nc(N[C@@H](C)c3cncc(F)c3)nc3ccsc23)C1 (stereo partly drawn) [Example Z520, N-Ethyl-1-(2-(((S)-1-(5-fluoropyridin-3-yl)ethyl)amino)thieno[3,2-d]pyrimidine-4-carbonyl)pyrrolidine-3-carboxamide] | 27.57 | > 8.00 | 6.30 to 7.00 | < 6.30 | < 6.30
CC1CCN1C(=O)c1nc(N[C@@H](C)c2cncc(F)c2)nc2ccsc12 (stereo partly drawn) [Example Z524, (2-(((S)-1-(5-Fluoropyridin-3-yl)ethyl)amino)thieno[3,2-d]pyrimidin-4-yl)(2-methylazetidin-1-yl)methanone] | 11.94 | > 8.00 | 7.00 to 7.30 | < 6.30 | < 6.30
CC(C)(C)C(=O)N[C@H]1CCN(C(=O)c2nc(NCc3cncc(F)c3)nc3ccsc23)C1 [Example Z526, (S)—N-(1-(2-(((5-Fluoropyridin-3-yl)methyl)amino)thieno[3,2-d]pyrimidine-4-carbonyl)pyrrolidin-3-yl)pivalamide] | 4.26 | 7.30 to 8.00 | 7.00 to 7.30 | < 6.30 | < 6.30
CC(=O)NC1CN(C(=O)c2nc(N[C@@H](C)c3cncc(F)c3)nc3ccsc23)C1 [Example Z530, (S)—N-(1-(2-((1-(5-Fluoropyridin-3-yl)ethyl)amino)thieno[3,2-d]pyrimidine-4-carbonyl)azetidin-3-yl)acetamide] | 6.99 | 7.30 to 8.00 | 6.30 to 7.00 | < 6.30 | < 6.30
